We go through 12 molecules from patent EP0750618B1, “OXAZOLIDINONE DERIVATIVES AND PHARMACEUTICAL COMPOSITIONS CONTAINING THEM” (priority 1994, dated 1995).

Usually ED50 stands for the dose that gives a 50% effect, or the effect in half of the subjects. Low readings indicate an effect at a small dose, high ones a need for a large dose.

The test system of assay [1] is Staphylococcus epidermidis (UC 12084). Briefly: MIC test, standard agar dilution method. The class given is cell-based. To be noted: UC12084, incubated overnight at 35°C, read-out: Minimum Inhibitory Concentrations (MIC) S. enidermidis. On the technique in general: In agar dilution, organisms are placed on agar that contains the substance at set levels.
The subject of assay [2] is Staphylococcus aureus (UC 9213). Briefly: Murine Assay procedure (in vivo), survival after intraperitoneal infection. To be noted: UC9213, 144 h, oral administration one hour and five hours after infection, female mice infected i.p. with S. aureus UC 9213, survival over six days, probit analysis. How it is done:
Groups of female mice (six mice of 18-20 grams each) were injected intraperitoneally with Staphylococcus aureus (UC 9213) bacteria which were thawed just prior to use and suspended in brain heart infusion with 4% brewer's yeast (Staphylococcus aureus) or brain heart infusion (Streptococcus species). Antibiotic treatment at six dose levels per drug (compound) was administered one hour and five hours after infection by either oral intubation or subcutaneous routes. Survival was observed daily for six days. ED50 values based on mortality ratios were calculated using probit analysis.

In another assay the test system is Staphylococcus aureus. The assay is described as follows: MIC test, standard agar dilution method.
Assay [3] deals with Streptococcus pyogenes (UC 152). Briefly: MIC test, standard agar dilution method. To be noted: UC152, read-out: Minimum Inhibitory Concentrations (MIC) S. pyogenes.
The subject of assay [4] is Mycobacterium tuberculosis. The assay is described as follows: MIC test, standard agar dilution method. The class given is cell-based. Particulars: read-out: Minimum Inhibitory Concentrations (MIC) M. tuberculosis.
The mark [5] stands for this setting: UC9213, read-out: Minimum Inhibitory Concentrations (MIC) S. aureus.

Converted amounts (≈) assume the structure as drawn. Where two headings read alike, the source gives them in different places.

Consider `CC(=O)NC[C@H]1CN(c2ccc(N3CCC(=O)CC3)c(F)c2)C(=O)O1` [Compound No. 7, (S)-N-{3-[3-fluoro-4-(4-oxo-piperidin-1-yl)-phenyl]-2-oxo-oxazolidin-5-ylmethyl}-acetamide], for which the values for the MIC (in assay [1]; in the assay with Staphylococcus aureus (setting [5]); in assay [3]) were 0.5 µg/mL (≈ 1.43 µM), 2 µg/mL (≈ 5.72 µM) and 2 µg/mL (≈ 5.72 µM), respectively. This molecule showed an ED50 in assay [2] of 8.1 mg/kg.
In the case of `COC(=O)NC1CCN(c2ccc(N3C[C@H](CNC(C)=O)OC3=O)cc2F)CC1` [Compound No. 30, (S)-N-{3-[3-fluoro-4-(4-methoxycarbonylamino-piperidin-1-yl)-phenyl]-2-oxo-oxazolidin-5-ylmethyl}-acetamide], the MIC in assay [1] came out at 2 µg/mL (≈ 4.9 µM); in the assay with Staphylococcus aureus (setting [5]), 4 µg/mL (≈ 9.79 µM); in assay [3], 2 µg/mL (≈ 4.9 µM). In assay [2], the ED50 stood at 2.8 mg/kg.
On to `COC(=O)NN=C1CCN(c2ccc(N3C[C@H](CNC(C)=O)OC3=O)cc2F)CC1` [Compound No. 31, (S)-N-{3-[3-fluoro-4-(4-methoxycarbonylhydrazono-piperidin-1-yl)-phenyl]-2-oxo-oxazolidin-5-ylmethyl}-acetamide], for which the MIC in assay [1] was determined as 0.5 µg/mL (≈ 1.19 µM); in the assay with Staphylococcus aureus (setting [5]), 2 µg/mL (≈ 4.75 µM); in assay [3], 1 µg/mL (≈ 2.37 µM). The ED50 in assay [2] worked out at 5 mg/kg.
The like results for `CC(=O)NC[C@H]1CN(c2ccc(N3CCC(=NO)CC3)c(F)c2)C(=O)O1` [Compound No. 11, (S)-N-{3-[3-fluoro-4-(4-hydroxyimino-piperidin-1-yl)-phenyl]-2-oxo-oxazolidin-5-ylmethyl}-acetamide] were, in that order, 1 µg/mL (≈ 2.74 µM), 2 µg/mL (≈ 5.49 µM), 1 µg/mL (≈ 2.74 µM) and 8.2 mg/kg.
Take `CCOC(=O)C1CCN(c2ccc(N3C[C@H](CNC(C)=O)OC3=O)cc2F)CC1` [Compound No. 1, (S)-1-{4-[5-(acetylamino-methyl)-2-oxo-oxazolidin-3-yl]-2-fluoro-phenyl}-piperidine-4-carboxylic acid ethyl ester]: the MIC in assay [1] came out at 2 µg/mL (≈ 4.91 µM); in assay [4], 1 µg/mL (≈ 2.45 µM); in the assay on Staphylococcus aureus (UC9218, read-out: Minimum Inhibitory Concentrations (MIC) S. aureus), 8 µg/mL (≈ 19.6 µM); in assay [3] it was 2 µg/mL (≈ 4.91 µM).
For the molecule `CC(=O)NC[C@H]1CN(c2ccc(N3CCC4(CC3)OCCN4C(=O)CO)c(F)c2)C(=O)O1` [Compound No. 54, (S)-N-(3-{3-fluoro-4-[4-(2-hydroxy-acetyl)-1-oxa-4,8-diaza-spiro[4.5]dec-8-yl]-phenyl}-2-oxo-oxazolidin-5-ylmethyl)-acetamide], the MIC in assay [1] stood at 4 µg/mL (≈ 8.88 µM); in the assay on Staphylococcus aureus (setting [5]), 16 µg/mL (≈ 35.5 µM); in assay [3], 4 µg/mL (≈ 8.88 µM).
For the molecule `COC(=O)ON=C1CCN(c2ccc(N3C[C@H](CNC(C)=O)OC3=O)cc2F)CC1` [compound 38, (S)-N-{3-[3-fluoro-4-(4-methoxycarbonyloxyimino-piperidin-1-yl)-phenyl]-2-oxo-oxazolidin-5-ylmethyl}-acetamide], the values for the MIC (in assay [1]; in the assay with Staphylococcus aureus (setting [5]); in assay [3]) were 0.5 µg/mL (≈ 1.18 µM), 2 µg/mL (≈ 4.73 µM) and 1 µg/mL (≈ 2.37 µM), respectively.
As for `CC(=O)NC[C@H]1CN(c2ccc(N3CCC(=NOC(=O)COC(C)=O)CC3)c(F)c2)C(=O)O1` [compound 43, (S)-N-{3-[3-fluoro-4-(4-acetoxyacetoxyimino-piperidin-1-yl)-phenyl]-2-oxo-oxazolidin-5-ylmethyl}-acetamide], the MIC in assay [1] was 0.5 µg/mL (≈ 1.08 µM); with Staphylococcus aureus (setting [5]), 4 µg/mL (≈ 8.61 µM); in assay [3], 1 µg/mL (≈ 2.15 µM).
As to `CC(=O)NC[C@H]1CN(c2ccc(N3CCC(N(C)C)CC3)c(F)c2)C(=O)O1` [Compound No. 67, (S)-N-{3-[4-(4-dimethylamino-piperidin-1-yl)-3-fluoro-phenyl]-2-oxo-oxazolidin-5-ylmethyl}-acetamide], the MIC in assay [1] came out at 2 µg/mL (≈ 5.28 µM); in the assay on Staphylococcus aureus (setting [5]), 32 µg/mL (≈ 84.6 µM); in assay [3], 1 µg/mL (≈ 2.64 µM).
In the case of `COCOC1CCN(c2ccc(N3C[C@H](CNC(C)=O)OC3=O)cc2F)CC1` [compound 27, (S)-N-{3-[3-fluoro-4-(4-methoxymethoxy-piperidin-1-yl)-phenyl]-2-oxo-oxazolidin-5-ylmethyl}-acetamide], the results for the MIC (in assay [1]; in the assay on Staphylococcus aureus (setting [5]); in assay [3]) were 2 µg/mL (≈ 5.06 µM), 8 µg/mL (≈ 20.2 µM) and 8 µg/mL (≈ 20.2 µM), respectively.
For the molecule `COCOCC1COC2(CCN(c3ccc(N4C[C@H](CNC(C)=O)OC4=O)cc3F)CC2)O1` (stereo partly drawn) [compound 57, (S)-N-(3-{3-fluoro-4-[2-(methoxymethoxy-methyl)-1,4-dioxa-8-aza-spiro[4.5]dec-8-yl]-phenyl}-2-oxo-oxazolidin-5-ylmethyl)-acetamide], the MIC in assay [1] amounted to 4 µg/mL (≈ 8.56 µM); in the assay with Staphylococcus aureus (setting [5]), 16 µg/mL (≈ 34.2 µM); in assay [3], 8 µg/mL (≈ 17.1 µM).
Turning to `CC(=O)NC[C@H]1CN(c2ccc(N3CCC(O)CC3)c(F)c2)C(=O)O1` [Compound No. 3, (S)-N-{3-[3-fluoro-4-(4-hydroxy-piperidin-1-yl)-phenyl]-2-oxo-oxazolidin-5-ylmethyl}-acetamide], the MIC amounted to 2 µg/mL (≈ 5.69 µM) in assay [1], 1 µg/mL (≈ 2.85 µM) in assay [4], 8 µg/mL (≈ 22.8 µM) with Staphylococcus aureus (setting [5]) and 2 µg/mL (≈ 5.69 µM) in assay [3].
